The values below come from article PMC3830731 (ACS chemical biology, 2013).

In test [1] the target is T1, MtmOIV (Streptomyces argillaceus, UniProt Q194P4). Nature of the test: X-ray crystal structure, […] Å. The following applies: non-covalently bound. Type of test: binding.
The target in test [2] is MtmOIV (Streptomyces argillaceus, UniProt Q194P4, R173A, form not given). Description: NADPH oxidation, fluorescence. Type of test: biochemical. The note with it: 2 mM premithramycin B, 0.1 mM FAD, O2; 100 mM Tris-HCl pH 8.25, 30 °C.
Test [3] has as its target T1, MtmOIV. Description: NADPH oxidation, fluorescence. Type of test: biochemical. The note with it: 2 mM premithramycin B, 0.1 mM FAD, O2; 100 mM Tris-HCl pH 8.25, 30 °C.

In the case of `Cc1cc2nc3c(=O)[nH]c(=O)nc-3n(C[C@H](O)[C@H](O)[C@H](O)COP(=O)(O)OP(=O)(O)OC[C@H]3O[C@@H](n4cnc5c(N)ncnc54)[C@H](O)[C@@H]3O)c2cc1C` [FAD], on MtmOIV [1], the “X-ray crystal structure, 2.0 Å” value is on record as “a single non-covalently bound FAD cofactor”.

As for `NC(=O)C1=CN([C@@H]2O[C@H](COP(=O)(O)OP(=O)(O)OC[C@H]3O[C@@H](n4cnc5c(N)ncnc54)[C@H](OP(=O)(O)O)[C@@H]3O)[C@@H](O)[C@H]2O)C=CC1` [NADPH], the Km on MtmOIV [2] was determined as 528 ± 63 µM; at MtmOIV [3], 372 ± 68 µM.
